From ChEMBL document CHEMBL1132517, “Nitrobenzyl carbamate prodrugs of enediynes for nitroreductase gene-directed enzyme prodrug therapy (GDEPT)” (Bioorg Med Chem Lett, 1999)
“And” between values parts separate entries of the source, which are not always exact repeats. Identical values can stand only once.

What was measured:
[1] = Ratio of oxygen dependence of cytotoxicities of UV4 cells in aerobic condition to anoxic condition; assay type: functional
[2] = Oxygen dependence of cytotoxicity was assessed by clonogenic assay using stirred suspension cultures of AA8 cells after 3h under aerobic conditions; assay type: functional, Cricetulus griseus, CHO-AA8
[3] = Oxygen dependence of cytotoxicity was assessed by clonogenic assay using stirred suspension cultures of ERCC-1 mutant UV4 cells after 3h under anoxic conditions; assay type: functional, Cricetulus griseus
SK-OV-3 [4] = experiment: In vitro cytotoxicity against SKOV-3 cells in the presence of 1 mM NADH co-factor; assay type: functional, cell-based; conditions: Homo sapiens
WiDr [5] = experiment: In vitro cytotoxicity against man colon carcinoma line WiDr cell lines transfected with Escherichia coli B nitroreductase (NTR); assay type: functional, cell-based; conditions: Homo sapiens
SK-OV-3 [6] = experiment: In vitro cytotoxicity against SKOV-3 cells in the presence of 1 mM NADH co-factor and 1 ug/mL Escherichia coli B nitroreductase (NTR); assay type: functional, cell-based; conditions: Homo sapiens
[7] = Ratio of oxygen dependence of cytotoxicities of AA8 cells in aerobic condition to anoxic condition; assay type: functional, Cricetulus griseus, CHO-AA8
T78-1 = experiment: In vitro cytotoxicity against Chinese hamster V79-derived cell line T78-1 transfected with Escherichia coli B nitroreductase (NTR); assay type: functional, cell-based; conditions: Cricetulus griseus
[8] = Oxygen dependence of cytotoxicity was assessed by clonogenic assay using stirred suspension cultures of ERCC-1 mutant UV4 cells after 3h under aerobic conditions; assay type: functional, Cricetulus griseus
SK-OV-3 [9] = experiment: In vitro cytotoxicity against SKOV-3 cells in the absence of co-factor; assay type: functional, cell-based; conditions: Homo sapiens
[10] = Ratio of cytotoxicities against T78-1 cell line to NTR transfectant; assay type: functional
[11] = Oxygen dependence of cytotoxicity was assessed by clonogenic assay using stirred suspension cultures of AA8 cells after 3h under anoxic conditions; assay type: functional, Cricetulus griseus, CHO-AA8
[12] = (§1) Ratio of cytotoxicities against WiDr cell line to NTR transfectant; assay type: functional
SK-OV-3 [13] = experiment: In vitro for cytotoxicity against SKOV-3 cells in the presence of 1 mM NADH co-factor; assay type: functional, cell-based; conditions: Homo sapiens
[14] = Ratio of cytotoxicity against SKOV-3 cells in the absence of co-factor to the cytotoxicity in the presence of co-factor and NTR; assay type: functional, SK-OV-3
[15] = Ratio of cytotoxicities against SKOV-3 cell line to NTR transfectant; assay type: functional, SK-OV-3
SK-OV-3 [16] = experiment: In vitro for cytotoxicity against SKOV-3 cells in the presence of 1 mM NADH co-factor and 1 ug/mL Escherichia coli B nitroreductase (NTR); assay type: functional, cell-based; conditions: Homo sapiens
[17] = Oxygen dependence of cytotoxicity was assessed by clonogenic assay using stirred suspension cultures of ERCC-1 mutant UV4 cells after 8 hr under aerobic conditions; assay type: functional, Cricetulus griseus
[18] = Oxygen dependence of cytotoxicity was assessed by clonogenic assay using stirred suspension cultures of ERCC-1 mutant UV4 cells after 8 hr under anoxic conditions; assay type: functional, Cricetulus griseus
[19] = Oxygen dependence of cytotoxicity was assessed by clonogenic assay using stirred suspension cultures of ERCC-1 mutant UV4 cells after 4 hr under anoxic conditions; assay type: functional, Cricetulus griseus
WiDr [20] = experiment: as §1; assay type: functional, Homo sapiens
[21] = Oxygen dependence of cytotoxicity was assessed by clonogenic assay using stirred suspension cultures of AA8 cells after 1 hr under aerobic conditions; assay type: functional, Cricetulus griseus, CHO-AA8
[22] = Oxygen dependence of cytotoxicity was assessed by clonogenic assay using stirred suspension cultures of ERCC-1 mutant UV4 cells after 1 hr under aerobic conditions; assay type: functional, Cricetulus griseus
[23] = Oxygen dependence of cytotoxicity was assessed by clonogenic assay using stirred suspension cultures of ERCC-1 mutant UV4 cells after 4 hr under aerobic conditions; assay type: functional, Cricetulus griseus
[24] = Oxygen dependence of cytotoxicity was assessed by clonogenic assay using stirred suspension cultures of AA8 cells after 4 hr under anoxic conditions; assay type: functional, Cricetulus griseus, CHO-AA8
[25] = Oxygen dependence of cytotoxicity was assessed by clonogenic assay using stirred suspension cultures of ERCC-1 mutant UV4 cells after 1 hr under anoxic conditions; assay type: functional, Cricetulus griseus
[26] = Oxygen dependence of cytotoxicity was assessed by clonogenic assay using stirred suspension cultures of AA8 cells after 1 hr under anoxic conditions; assay type: functional, Cricetulus griseus, CHO-AA8
[27] = Oxygen dependence of cytotoxicity was assessed by clonogenic assay using stirred suspension cultures of AA8 cells after 4 hr under aerobic conditions; assay type: functional, Cricetulus griseus, CHO-AA8

Row | SMILES | C10 air/C10 N2 [1] | C10 air [2] | C10 N2 [3] | IC50 (SK-OV-3 [4]) | IC50 (WiDr [5]) | IC50 (SK-OV-3 [6]) | IC50 (T78-1) | C10 air [8] | IC50 (SK-OV-3 [9]) | Selectivity [10] | C10 N2 [11] | Selectivity [12] | Selectivity [14] | Selectivity [15] | other results
1 | O=C(OCc1ccccc1[N+](=O)[O-])N1c2ccccc2[C@@]23O[C@]24CCC[C@H]3C#C/C=C\C#C[C@H]14 | 0.4 | 120 µM | 53 µM | > 20000 nM | > 20000 nM | > 20000 nM | 8900 nM | 140 µM | > 20000 nM | 1.9 | 200 µM | – | – | – | C10 air/C10 N2 [7]: >1.7
2 | NC(=O)c1cc(N2CC2)c([N+](=O)[O-])cc1[N+](=O)[O-] [TRETAZICAR] | – | – | – | – | 565000 nM | – | – | – | – | 1630 | – | 51 | 183 | 357 | IC50 (SK-OV-3 [13]): 760 nM; IC50 (SK-OV-3 [16]): 1010 nM
3 | O=C(OCc1ccc([N+](=O)[O-])cc1)N1c2ccccc2[C@@]23O[C@]24CCC[C@H]3C#C/C=C\C#C[C@H]14 | – | >100 µM | >100 µM | > 20000 nM | 8400 nM | 260 nM | 11100 nM | >100 µM | 20400 nM | 54 | >100 µM | 97 | 95.9 | 264 | ratio [1]: 1; C10 air [17]: 70 µM; C10 N2 [18]: 70 µM
4 | O=C(OCc1ccc([N+](=O)[O-])cc1)N1c2ccc(OCCO)cc2[C@@]23O[C@]24CCC[C@H]3C#C/C=C\C#C[C@H]14 | 1.5 and 1.1 | – | – | 500 nM | 1810 nM | 39 nM | 2400 nM | – | 500 nM | 111 | – | – | 13 | 21.3 | C10 N2 [19]: 12 µM; Selectivity (WiDr [20]): 135; C10 air [21]: 75 µM; C10 air [22]: 40 µM; C10 air [23]: 11 µM; C10 N2 [24]: >100 µM; C10 N2 [25]: 60 µM; C10 N2 [26]: >100 µM; C10 air [27]: 22 µM
